Assay results taken from patent US20080181971A1, “Combination Cancer Treatments Comprising Elsamitrucin and Other Agents” (priority 2007, published 2008).

System: HCT116 human colon carcinoma
Assay: HCT116-e256 study: tumor growth delay of subcutaneous HCT116 xenografts in nude mice
Format: in vivo
Conditions: for Median TTE (time to endpoint): endpoint 2000 mm^3, control 25.1; for tumor growth delay (TGD): percent of median TTE of untreated group
Procedure: Tumors were measured twice weekly during the experiment, and each animal was euthanized when its tumor reached the endpoint volume of 2000 mm^3 or on the last day of the study (Day 59), whichever came first.
Treatment outcome was assessed by tumor growth delay (TGD), defined as the difference in median time to endpoint tumor burden in a treatment group compared to a control group.
a. Mice. […] The mice were housed on irradiated ALPHA-Dri® Bed-O'Cobs® Laboratory Animal Bedding in static microisolators on a 12-hour light cycle at 21-22° C. (70-72° F.) and 40-60% humidity. Testing facilities complied with the recommendations of the Guide for Care and Use of Laboratory Animals with respect to restraint, husbandry, surgical procedures, feed and fluid regulation, and veterinary care. The animal care and use program at the testing facility is accredited by AAALAC, which assures compliance with accepted standards for the used and care of laboratory animals.
b. Tumor Implantation. […] On the day of tumor implant, the cells were trypsinized, harvested by centrifugation and resuspended in phosphate buffered saline. Each mouse received 5×10^6 HCT116 tumor cells in 0.2 mL implanted subcutaneously in the right flank, and tumor growth was monitored. […] Tumor volume was calculated using the formula: […]
c. Therapeutic Agents. […] The 0.5 mg/mL dosing solution was prepared by 2-fold dilution in distilled water. Both solutions were prepared fresh for each dose administered.
Dosing solutions of 0.75 and 1.5 mg/mL were formulated fresh for each dose by diluting the stock solution ten-fold with D5W.
d. Treatment Plan. […] Note the routes of administration and schedules detailed in Table 10. All doses were given in volumes of 0.2 mL per 20 g of body weight (10 mL/kg), and were scaled to the body weight of the animal.
e. Endpoint. Tumors were measured twice weekly using calipers. Each animal was euthanized when its tumor reached the endpoint size of 2000 mm^3 or at the conclusion of the study on Day 59, whichever came first. The time to endpoint (TTE) for each mouse was calculated from the following equation: […]
where b is the intercept and m is the slope of the line obtained by linear regression of a log-transformed tumor growth data set. The data set was comprised of the first observation that exceeded the study endpoint volume and the three consecutive observations that immediately preceded the attainment of the endpoint volume. […] Animals classified as NTR (non-treatment-related) deaths due to accident (NTRa) or due to unknown causes (NTRu) were excluded from TTE calculations (and all further analyses). Animals classified as TR (treatment-related) deaths or NTRm (non-treatment-related death due to metastasis) were assigned a TTE value equal to the day of death.
Treatment outcome was evaluated by tumor growth delay (TGD), which is defined as the increase in the median time to endpoint (TTE) in a treatment group compared to the control group:
Treatment may cause partial regression (PR) or complete regression (CR) of the tumor in an animal. […] An animal with a CR response at the termination of a study is additionally classified as a tumor-free survivor (TFS). Regression responses were monitored and recorded.
g. Statistical and Graphical Analyses. The Logrank test was used to analyze the significance of the differences between the TTE values of treated and control groups. Two-tailed statistical analyses were conducted at significance level P=0.05.
Median tumor growth curves show group median tumor volumes as a function of time. When an animal exited the study due to tumor size, the final tumor volume recorded for the animal was included with the data used to calculate the group median tumor volume at subsequent time points. Curves were truncated after 50% of the animals in a group had exited the study, or after the second TR death in a group, whichever came first (see the exception in FIG. 8).

[1] = Groups 2,4,6,8,10: elsamitrucin 10 mg/kg ip q4d x3, paclitaxel 15 mg/kg iv qod x5, cisplatin 2.7 mg/kg ip qd x5
[2] = Groups 3,5,7,9,11: elsamitrucin 5 mg/kg ip q4d x3, paclitaxel 7.5 mg/kg iv qod x5, cisplatin […] ip qd x5

Structure (SMILES)	% TGD = [(T − C)/C] × 100 [1]	No. of CR (complete regression) [1]	No. of PR (partial regression) [1]	No. of TFS (tumor free survivor) [1]	T − C (difference between median TTE of treated versus control group) [1]	Median TTE (time to endpoint) [1]	% TGD = [(T − C)/C] × 100 [2]	No. of CR (complete regression) [2]	No. of PR (partial regression) [2]	No. of TFS (tumor free survivor) [2]	T − C (difference between median TTE of treated versus control group) [2]	Median TTE (time to endpoint) [2]	tumor growth delay (TGD) (higher dose level)	tumor growth delay (TGD) (lower dose level)	MTV (n) Day 59 (median tumor volume) (Groups 2,4,6,8,10: elsamitrucin 10 mg/kg ip q4d x3, paclitaxel 15 mg/kg iv qod x5, animals remaining on Day 59, n in brackets)	tumor regressions (elsamitrucin monotherapy groups, 10 or 5 mg/kg i.p. q4d x3)	partial regression response (higher dose level, animals of ten)
N.N.[Cl][Pt][Cl] [Cisplatin, cisplatin]	23%	0	0	0	5.7 days	30.8 days	1%	0	0	0	0.2 days	25.3 days	23%	1%	–	–	–
CO[C@@H]1[C@@H](N)[C@@H](O[C@H]2[C@H](Oc3cccc4c(O)c5c(=O)oc6ccc(C)c7c(=O)oc(c34)c5c67)O[C@H](C)[C@H](O)[C@]2(C)O)O[C@H](C)[C@@H]1O [Elsamitrucin, benzo(h)(1)benzopyrano(5,4,3-cde)(1)ebnzopyran-5,12-dione,10((2-O-(2-amino-2,6-dideoxy-3-O-methyl-alpha-D-galactopyranosyl)-6-deoxy-3-C-methyl-beta-D-galactopyranosyl)oxy)-6-hydroxy-1-methyl]	8%	0	0	0	2.0 days	27.1 days	6%	0	0	0	1.4 days	26.5 days	–	–	88 (1) mm^3	No tumor regressions	–
CC(=O)O[C@H]1C(=O)[C@@]2(C)[C@H]([C@H](OC(=O)c3ccccc3)[C@]3(O)C[C@H](OC(=O)[C@H](O)[C@@H](NC(=O)c4ccccc4)c4ccccc4)C(C)=C1C3(C)C)[C@]1(OC(C)=O)CO[C@@H]1C[C@@H]2O [Paclitaxel, paclitaxel]	59%	0	1	0	14.7 days	39.8 days	22%	0	0	0	5.6 days	30.7 days	–	–	–	–	1/10
